Laboratory results from PMC7747997 (Plant Communications, 2019).
Values belong to the molecule of their own block, whether it stands above or below them.

Experiments:
Experiment in all cases: X-ray crystal structure, […] Å
Format in all cases: binding
SrUGT76G1 [1] = biological target: T1, SrUGT76G1 (Stevia rebaudiana, UniProt Q6VAB4); conditions: donor site; crystals set up with UDP-glucose
T1 sequence (Q6VAB4 1-458): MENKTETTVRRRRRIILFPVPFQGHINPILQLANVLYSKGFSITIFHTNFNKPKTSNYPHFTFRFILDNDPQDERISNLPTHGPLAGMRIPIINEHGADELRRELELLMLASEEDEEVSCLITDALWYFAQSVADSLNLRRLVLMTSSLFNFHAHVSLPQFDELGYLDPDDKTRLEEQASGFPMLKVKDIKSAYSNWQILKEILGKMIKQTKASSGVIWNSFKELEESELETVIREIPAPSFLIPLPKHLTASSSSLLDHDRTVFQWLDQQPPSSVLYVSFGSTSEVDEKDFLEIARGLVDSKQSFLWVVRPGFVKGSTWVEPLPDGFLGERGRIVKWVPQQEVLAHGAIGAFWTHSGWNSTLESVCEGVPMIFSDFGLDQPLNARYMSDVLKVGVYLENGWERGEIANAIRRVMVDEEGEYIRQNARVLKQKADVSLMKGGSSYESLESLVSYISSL

SrUGT76G1 [2] = biological target: T1, SrUGT76G1; conditions: complex with UDP (crystals set up with UDP-xylose); acceptor pocket
SrUGT76G1 [3] = biological target: T1, SrUGT76G1; conditions: donor site; crystals set up with UDP-xylose and Sb

Structure (SMILES): O=c1ccn([C@@H]2O[C@H](COP(=O)(O)OP(=O)(O)O)[C@@H](O)[C@H]2O)c(=O)[nH]1 [UDP]
X-ray crystal structure, 2.6 Å (SrUGT76G1 [1]): we crystallized SrUGT76G1 complexed with UDP (UDP-SrUGT76G1)

Structure (SMILES): C=C1C[C@@]23CC[C@H]4[C@@](C)(CCC[C@@]4(C)C(=O)O)[C@@H]2CC[C@]1(O[C@@H]1O[C@H](CO)[C@@H](O)[C@H](O)[C@H]1O)C3 [steviolmonoside]
X-ray crystal structure, 2.4 Å (SrUGT76G1 [2]): UDP and steviolmonoside (UDP-Sm-SrUGT76G1)

X-ray crystal structure, 2.5 Å (SrUGT76G1 [3]): UDP-xylose (UDPX-SrUGT76G1)
Structure (SMILES): O=c1ccn([C@@H]2O[C@H](COP(=O)(O)OP(=O)(O)O[C@H]3OC[C@@H](O)[C@H](O)[C@H]3O)[C@@H](O)[C@H]2O)c(=O)[nH]1 [UDP-xylose]
